Data taken from paper PMC6107088 (Inorganic chemistry, 2018).

Tests used:
[1] = target: yeast iso-1 cytochrome c WT* (pseudo-wild-type), ferric (Saccharomyces cerevisiae, UniProt P00044, C108S/K78A); assay: equilibrium titration, Soret absorbance at […] and […] nm, one-site fit; format: binding
[2] = target: yeast iso-1 cytochrome c WT* (pseudo-wild-type), ferric (Saccharomyces cerevisiae, UniProt P00044, C108S/K78A/K79A/K85G/M86K); assay: as above; format: binding
Lys80 = Lys80 (UniProt position 86, IPGTGKAFGGL); assay: UV-vis; conditions: ferric protein; Lys80/His18-ligated haem converting to H2O/His-ligated haem; cited from earlier work

Chain of yeast iso-1 cytochrome c WT* (pseudo-wild-type), ferric (Saccharomyces cerevisiae, UniProt P00044, C108S/K78A) (P00044 2-109 K78A/C108S): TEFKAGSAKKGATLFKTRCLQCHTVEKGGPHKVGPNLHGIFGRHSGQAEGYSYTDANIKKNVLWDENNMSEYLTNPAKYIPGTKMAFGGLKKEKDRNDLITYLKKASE
Chain of yeast iso-1 cytochrome c WT* (pseudo-wild-type), ferric (Saccharomyces cerevisiae, UniProt P00044, C108S/K78A/K79A/K85G/M86K) (P00044 2-109 K78A/K79A/K85G/M86K/C108S): as the sequence (P00044 2-109 K78A/C108S) above, with K78A, K84G, M85K counted along it

Compound | Kd [1] [µM] | Kd [2] [µM] | pKa (Lys80)
c1c[nH]cn1 [imidazole] | 2780 | 2330 | –
iso-1 cytochrome c, M80K# (K73A/K79G/M80K in WT* background) (Saccharomyces cerevisiae; K72A;K73A;K79G;M80K;C102S) | – | – | 4.9 ± 0.2
